Drawing on PMC11331178 (Journal of Advanced Research, 2023), this text covers Kd for one compound.

In the experiment the target is T1, TFEB (Homo sapiens, UniProt P19484).
T1 sequence (P19484 1-476 limits assumed): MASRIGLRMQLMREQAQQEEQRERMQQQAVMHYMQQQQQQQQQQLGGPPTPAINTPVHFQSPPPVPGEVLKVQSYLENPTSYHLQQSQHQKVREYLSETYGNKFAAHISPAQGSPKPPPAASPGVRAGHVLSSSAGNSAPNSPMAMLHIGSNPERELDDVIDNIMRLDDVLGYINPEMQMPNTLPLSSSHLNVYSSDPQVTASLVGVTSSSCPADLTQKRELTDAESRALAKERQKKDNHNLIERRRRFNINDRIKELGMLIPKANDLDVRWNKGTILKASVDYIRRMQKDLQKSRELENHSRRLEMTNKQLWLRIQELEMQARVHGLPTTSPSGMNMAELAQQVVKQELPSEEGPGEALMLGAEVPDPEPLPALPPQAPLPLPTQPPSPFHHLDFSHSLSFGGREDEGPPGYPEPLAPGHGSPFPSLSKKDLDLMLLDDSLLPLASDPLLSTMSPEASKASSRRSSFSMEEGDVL
The experiment is described as follows: SPR, Biacore S200, CM5 chip. The experiment is classed as binding.

What is called Kd is the concentration at which binding is half-saturated.

In the case of `C=C[C@]1(C)CC[C@@H](C(=C)C)C[C@H]1C(=C)C` [β-ELE], the Kd amounted to 83 µM.
